{
  "source": "patent US20020160008A1",
  "about": "“TREATMENT OF DIABETES” (priority 1994, published 2002)",
  "key": {"[1]": {"experiment": "Sustacal meal with GLIP infusion 0.75 pm/kg/min in remission phase Type I diabetes (Example 3)", "format": "in vivo, human", "settings": "GLIP 0.75 pmol/kg/min for 120 min with Sustacal meal, versus saline infusion; FIG. 3", "experimental": "The test was conducted as described in Example 1 and blood glucose and C-peptide levels were measured. On a further test day, the subjects were studied during saline infusion after a similar Sustacal meal."}, "[2]": {"experiment": "Intravenous glucose infusion with intravenous GLIP in remission phase Type I diabetes (Example 2)", "format": "in vivo, human", "settings": "IV GLIP 1.2 pm/kg/min for 60 min with IV glucose 20 g over 60 min, FIG. 2", "experimental": "Four subjects with remission phase Type I diabetes were studied during intravenous glucose infusion. Subjects prepared for the tests as described in Example 1, but received an intravenous infusion of glucose (20 g over 60 min. constant rate)instead of the Sustacal meal. […] Blood levels of glucose and C-peptide were monitored as in Example 1."}, "[3]": {"settings": "50 μg GLIP plus 5 units insulin (half the usual dose) subcutaneously before Sustacal meal; one subject; FIG. 6 Panel A", "excerpt": "One Type 1 diabetic subject was given GLIP along with insulin and the effects on post-prandial glycaemia observed. […] Blood levels of GLIP were monitored by a standard radioimmunoassay method."}, "[4]": {"experiment": "Sustacal meal preceded by subcutaneous GLIP injection in Type I diabetic subjects (Example 5)", "format": "in vivo, human", "settings": "Type I diabetics, 100 μg GLIP subcutaneously before Sustacal meal", "text": "7 Type I diabetic subjects were studied."}, "[5]": {"experiment": "Sustacal meal preceded by subcutaneous GLIP injection in normal volunteers (Example 4)", "format": "in vivo, human", "settings": "for delay in increase in blood levels of glucose, HPP, C-peptide and insulin: compared with the first dose", "description": "7 normal volunteers were studied after ingestion of a Sustacal meal either alone or immediately preceded by a subcutaneous injection of 1.00 μg GLIP."}, "[6]": {"experiment": "Sustacal meal with intravenous GLIP infusion 1.2 pm/kg/min in remission phase Type I diabetes (Example 1)", "format": "in vivo, human", "settings": "IV GLIP 1.2 pm/kg/min for 120 min after Sustacal meal", "experimental": "7 subjects with remission phase Type I diabetes were studied after ingestion of a standardised meal of Sustacal (Upjohn) (delivering […]). Subjects continued their normal insulin treatment programme on the day prior to the test and, on the day of the test, omitted their morning insulin injection and arrived fasting at 8:00 am. […] Infusion was continued for 120 minutes. Blood levels of glucose, C-peptide, gastrin, glucagon and HPP were monitored by standard radioimmunoassay methods in samples taken before and at intervals during the study, up to 180 minutes. On another test day, subjects were given the Sustacal meal alone and the same analytes were similarly monitored."}},
  "note": "“Also recorded” adds a separate entry of the source.",
  "data": [
    {"substance": "Glucagon-like peptide 1(7-36)amide [GLIP]", "values": [
      {"measurement": "C-peptide after meal", "setting": "[1]", "value": "rise in C-peptide was similar to the control experiment"},
      {"measurement": "blood glucose after meal", "setting": "[1]", "value": "increase in glucose was less than in the control experiment"},
      {"measurement": "control of blood glucose level", "setting": "[2]", "value": "improved control of blood glucose level"},
      {"measurement": "secretion of endogenous insulin", "setting": "[2]", "value": "stimulated secretion of endogenous insulin"},
      {"measurement": "blood glucose after standard meal (maximum)", "setting": "[3]", "value": "≤ 8", "unit": "mM"},
      {"measurement": "blood glucose levels compared to control", "setting": "[4]; no morning insulin, FIG. 5 Panel A", "value": "lowering of blood glucose levels"},
      {"measurement": "pancreatic polypeptide (HPP) levels", "setting": "[4]; FIG. 5 Panel D", "value": "delayed rise in pancreatic polypeptide (HPP) levels"},
      {"measurement": "insulin secretion (C-peptide, insulin)", "setting": "[4]; FIG. 5 Panels B and C", "value": "no enhancement of insulin secretion over control levels"},
      {"measurement": "delay in increase in blood levels of glucose, HPP, C-peptide and insulin", "setting": "[5]; 50 μg GLIP", "value": "proportionally shorter"},
      {"measurement": "delay in increase in blood levels of glucose, HPP, C-peptide and insulin", "setting": "[5]; 200 μg GLIP", "value": "longer delays"},
      {"measurement": "increase in blood levels of glucose, HPP, C-peptide and insulin", "setting": "[5]; subcutaneous GLIP (1.00 μg as printed elsewhere in the source) before Sustacal meal, FIG. 4", "value": "A delay in increase"},
      {"measurement": "blood levels of C-peptide", "setting": "[6]", "value": "prevented a significant increase in blood levels of C-peptide"},
      {"measurement": "plasma glucagon levels stimulated by the meal", "setting": "[6]", "value": "prevented the mean rise in plasma glucagon levels"},
      {"measurement": "control of blood glucose level after a meal", "setting": "[6]; FIG. 1 Panel A", "value": "excellent control of blood glucose level"},
      {"measurement": "pancreatic polypeptide (PP) response to meal", "setting": "[6]; FIG. 1 Panel C", "value": "this response was absent during GLIP infusion"},
      {"measurement": "gastrin response / gastrin levels", "setting": "[6]; FIG. 1 Panel E", "value": "normal gastrin response; also recorded: not significantly affected"}
    ]}
  ]
}
